Results: patent US20160311788A1, “Antifouling Compounds And Use Thereof” (National University of Singapore, priority 2008, published 2016)

Experiments:
[1] = test system: marine bacteria strain S1; experiment: disc inhibition assay, strain S1; assay type: cell-based, Rhodovulum iodosum
Method in brief: (§1)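 Compounds were applied at 50 μg per 6 mm disc (from 2 mg/ml DMSO stock; DMSO control) onto lawns of Singapore coastal fouling bacteria on marine agar. After overnight incubation in the dark at 35 °C, inhibition-zone diameters were caliper-measured; mean of two replicates.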

[2] = test system: marine bacteria strain S4; experiment: disc inhibition assay, strain S4; assay type: cell-based, Bacillus algicola; conditions: Guptibacillus algicola, S4, 24 h
Method in brief: as §1

[3] = test system: marine bacteria strain S30; experiment: disc inhibition assay, strain S30; assay type: cell-based, Bacillus borophilicus; conditions: Bacillus, S30, 24 h
Method in brief: as §1

[4] = test system: marine bacteria strain S10; experiment: disc inhibition assay, strain S10; assay type: cell-based, Halobacillus trueperi; conditions: Halobacillus trueperi, S10, 24 h
Method in brief: as §1

[5] = test system: marine bacteria strain S27; experiment: disc inhibition assay, strain S27; assay type: cell-based, Tenacibaculum lutimaris; conditions: Tenacibaculum lutimaris, S27, 24 h
Method in brief: as §1

[6] = test system: marine bacteria strain S16; experiment: disc inhibition assay, strain S16; assay type: cell-based, Pseudoalteromonas piscicida; conditions: Pseudoalteromonas piscicida, S16, 24 h
Method in brief: as §1

[7] = test system: marine bacteria strain S29; experiment: disc inhibition assay, strain S29; assay type: cell-based, Bacillus hwajinpoensis; conditions: Guptibacillus hwajinpoensis, S29, 24 h
Method in brief: as §1

[8] = test system: marine bacteria strain S18; experiment: disc inhibition assay, strain S18; assay type: cell-based, Microbacterium esteraromaticum; conditions: Microbacterium esteraromaticum, S18, 24 h
[9] = test system: marine bacteria strain S17; experiment: disc inhibition assay, strain S17; assay type: cell-based, Gordonia terrae; conditions: Gordonia terrae, S17, 24 h
Method in brief: as §1

[10] = test system: marine bacteria strain S14; experiment: disc inhibition assay, strain S14; assay type: cell-based, Vibrio probioticus
[11] = test system: marine bacteria strain S28; experiment: disc inhibition assay, strain S28; assay type: cell-based, Arthrobacter protophormial; conditions: Arthrobacter, S28, 24 h
Method in brief: as §1

[12] = test system: Pseudomonas putida (Strain KT2440; BCRC 10459); experiment: disc inhibition assay, REF 4; assay type: cell-based
Description: (§2) 13 strains of marine bacteria were isolated from fouling communities located in the coastal waters around Singapore. These were characterized in earlier studies and reported in Teo et al. (U.S. patent application Ser. No. 11/265,833) and Choong et al (in prep). In addition, four reference bacterial strains were added tested: Escherichia coli (Strain K12, ATCC 15222), E. coli (strain DH5a), Pseudomonas aeruginosa (strain LMG 12228; ATCC 15692) and P. putida (strain KT2440; ATCC 47054). All the bacteria were also tested against five antibiotics: ampicillin (AMP), tetracycline (TETR), erythromycin (ERY), chloramphenicol (CHL) and streptomycin (STREP).
(§3) Disks comprising the compounds to be tested were prepared as follows. The antibacterial assay, the pure compounds were made up to a concentration of 2 mgml^−1 in DMSO. 25 μl of the stock was pipetted onto each 6 mm sterile disc (Macherey-Nagel #484000) to obtain 50 μg of compound per disc. Equivalent volume of DMSO was used inoculated for the control.
(§4) For all disk inhibition assays, bacterial cultures were grown in marine broth (Pronadisa #1217.00). Sterile swabs dipped into the cultures were used to inoculate Marine Agar plates with a bacterial lawn by smearing the culture over the surface. After inoculating the plates, discs with antibiotics, pharmaceuticals or control blanks were placed on each plate. Each concentration of antibiotic or pharmaceutical was tested with two replicates. After the disks were placed on the agar surface, plates were incubated overnight in the dark at 35° C. After incubation, plates were examined for zones of inhibition or clearing around control and treated disks. The diameter of any zone of clearing or inhibition was measured using Vernier calipers. There were two replicates per treatment, and the average was taken. There was no zone of inhibition around the control blanks in all the assays.

[13] = test system: Escherichia coli (Strain K12; ATCC 15222); experiment: disc inhibition assay, REF 1; assay type: cell-based
Description: as §2, §3, §4

[14] = test system: marine bacteria strain S9; experiment: disc inhibition assay, strain S9; assay type: cell-based, Bacillus algicola; conditions: Guptibacillus algicola, S9, 24 h
Method in brief: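 Read-out is the diameter of the zone of clearing around each disc, measured with Vernier calipers and averaged over duplicates. Each disc carried 50 μg of compound applied from a 2 mg/ml DMSO stock onto a Marine Agar bacterial lawn, incubated overnight at 35° C in darkness.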

[15] = test system: Pseudomonas aeruginosa (strain LMG 12228; ATCC 15692); experiment: disc inhibition assay, REF 3; assay type: cell-based
Description: as §2, §3, §4

[16] = test system: Escherichia coli (Strain DH5a); experiment: disc inhibition assay, REF 2; assay type: cell-based
Description: as §2, §3, §4

[17] = test system: marine bacteria strain S3; experiment: disc inhibition assay, strain S3; assay type: cell-based, Erythrobacter aquimaris; conditions: Qipengyuania aquimaris, S3, 24 h
Method in brief: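 Antibacterial susceptibility was measured by agar disc diffusion. Compounds dissolved in DMSO were applied to 6 mm sterile discs and laid on Marine Agar lawns of a Singapore coastal marine bacterium cultured in marine broth. After overnight dark incubation at 35° C, clearing zone diameters were measured with Vernier calipers, and the two replicates were averaged.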

## CC[C@H]1OC(=O)[C@H](C)[C@@H](O[C@H]2C[C@@](C)(OC)[C@@H](O)[C@H](C)O2)[C@H](C)[C@@H](O[C@@H]2O[C@H](C)C[C@H](N(C)C)[C@H]2O)[C@](C)(O)C[C@@H](C)C(=O)[C@H](C)[C@@H](O)[C@]1(C)O [ERY, Erythromycin, reference compound]
[1]; strain 1, 5 ug
  zone of inhibition: −
[1]; strain 1, 15 ug
  zone of inhibition: −
[2]; strain 4, 5 ug
  zone of inhibition at 5 µg/disc: > 10 mm
[2]; strain 4, 15 ug
  zone of inhibition at 15 µg/disc: > 10 mm
[3]; strain 30, 5 ug
  zone of inhibition at 5 µg/disc: 5 to 10 mm
[3]; strain 30, 15 ug
  zone of inhibition at 15 µg/disc: 5 to 10 mm
[4]; strain 10, 5 ug
  zone of inhibition at 5 µg/disc: 5 to 10 mm
[4]; strain 10, 15 ug
  zone of inhibition at 15 µg/disc: > 10 mm
[5]; strain 27, 5 ug
  zone of inhibition at 5 µg/disc: 5 to 10 mm
[5]; strain 27, 15 ug
  zone of inhibition at 15 µg/disc: 5 to 10 mm
[6]; strain 16, 5 ug
  zone of inhibition at 5 µg/disc: 2 to 5 mm
[6]; strain 16, 15 ug
  zone of inhibition at 15 µg/disc: 2 to 5 mm
[7]; strain 29, 5 ug
  zone of inhibition at 5 µg/disc: > 10 mm
[7]; strain 29, 15 ug
  zone of inhibition at 15 µg/disc: > 10 mm
[8]; strain 18, 5 ug
  zone of inhibition at 5 µg/disc: 2 to 5 mm
[8]; strain 18, 15 ug
  zone of inhibition at 15 µg/disc: 5 to 10 mm
[9]; strain 17, 5 ug
  zone of inhibition at 5 µg/disc: > 10 mm
[9]; strain 17, 15 ug
  zone of inhibition at 15 µg/disc: > 10 mm
[10]; Vibrio, S14, 24 h
  zone of inhibition at 15 µg/disc: 2 to 5 mm
[10]; strain 14, 5 ug
  zone of inhibition: −
[11]; strain 28, 5 ug
  zone of inhibition at 5 µg/disc: > 10 mm
[11]; strain 28, 15 ug
  zone of inhibition at 15 µg/disc: > 10 mm
[12]; REF 4, 5 ug
  zone of inhibition: + (2-5 mm zone of inhibition around each disk was observed.)
[12]; REF 4, 15 ug
  zone of inhibition: + (2-5 mm zone of inhibition around each disk was observed.)
[13]; REF 1, 5 ug
  zone of inhibition: −
[13]; REF 1, 15 ug
  zone of inhibition: + (2-5 mm zone of inhibition around each disk was observed.)
[14]; strain 9, 5 ug
  zone of inhibition at 5 µg/disc: > 10 mm
[14]; strain 9, 15 ug
  zone of inhibition at 15 µg/disc: > 10 mm
[15]; REF 3, 5 ug
  zone of inhibition: + (2-5 mm zone of inhibition around each disk was observed.)
[15]; REF 3, 15 ug
  zone of inhibition: + (2-5 mm zone of inhibition around each disk was observed.)
[16]; REF 2, 5 ug
  zone of inhibition: −
[16]; REF 2, 15 ug
  zone of inhibition: + (2-5 mm zone of inhibition around each disk was observed.)
[17]; strain 3, 5 ug
  zone of inhibition at 5 µg/disc: 5 to 10 mm
[17]; strain 3, 15 ug
  zone of inhibition at 15 µg/disc: 5 to 10 mm

## O=C(N[C@H](CO)[C@H](O)c1ccc([N+](=O)[O-])cc1)C(Cl)Cl [CHL, Chloramphenicol, reference compound]
[1]; Rhodovulum iodosum, S1, strain 1, 30 ug
  zone of inhibition at 30 µg/disc: 5 to 10 mm
[2]; strain 4, 30 ug
  zone of inhibition at 30 µg/disc: > 10 mm
[3]; strain 30, 30 ug
  zone of inhibition at 30 µg/disc: 5 to 10 mm
[4]; strain 10, 30 ug
  zone of inhibition at 30 µg/disc: > 10 mm
[5]; strain 27, 30 ug
  zone of inhibition at 30 µg/disc: > 10 mm
[6]; strain 16, 30 ug
  zone of inhibition at 30 µg/disc: 5 to 10 mm
[7]; strain 29, 30 ug
  zone of inhibition at 30 µg/disc: > 10 mm
[8]; strain 18, 30 ug
  zone of inhibition at 30 µg/disc: 5 to 10 mm
[9]; strain 17, 30 ug
  zone of inhibition at 30 µg/disc: > 10 mm
[10]; Vibrio, S14, 24 h
  zone of inhibition at 30 µg/disc: 5 to 10 mm
[11]; strain 28, 30 ug
  zone of inhibition at 30 µg/disc: > 10 mm
[12]; REF 4, 30 ug
  zone of inhibition: ++ (5-10 mm zone was observed.)
[13]; REF 1, 30 ug
  zone of inhibition: ++ (5-10 mm zone was observed.)
[14]; strain 9, 30 ug
  zone of inhibition at 30 µg/disc: > 10 mm
[15]; REF 3, 30 ug
  zone of inhibition: ++ (5-10 mm zone was observed.)
[16]; REF 2, 30 ug
  zone of inhibition: ++ (5-10 mm zone was observed.)
[17]; strain 3, 30 ug
  zone of inhibition at 30 µg/disc: > 10 mm
